PubChem BioAssay (NCI)
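Interpolation was linear, between the two tested concentrations surrounding the appropriate level; five concentrations were tested over 48 hours in 96-well plates. GI50 is the concentration that inhibits growth by half. TGI marks complete inhibition of growth.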

How the values were obtained:
Assay in all cases: inhibition of tumour cell growth, NCI panel, 48 h
NCI-H522 lung = test system: NCI-H522 lung
UACC-257 melanoma = test system: UACC-257 melanoma
SK-MEL-28 melanoma = test system: SK-MEL-28 melanoma
SF-539 CNS = test system: SF-539 CNS
SN12C renal = test system: SN12C renal
SNB-19 CNS = test system: SNB-19 CNS
SF-295 CNS = test system: SF-295 CNS
M14 melanoma = test system: M14 melanoma
NCI-H23 lung = test system: NCI-H23 lung
CAKI-1 renal = test system: CAKI-1 renal

Compound | TGI (NCI-H522 lung) | TGI (UACC-257 melanoma) | TGI (SK-MEL-28 melanoma) | TGI (SF-539 CNS) | TGI (SN12C renal) | TGI (SNB-19 CNS) | TGI (SF-295 CNS) | TGI (M14 melanoma) | TGI (NCI-H23 lung) | TGI (CAKI-1 renal) | GI50 (NCI-H522 lung) | GI50 (UACC-257 melanoma) | GI50 (SK-MEL-28 melanoma) | GI50 (SF-539 CNS) | GI50 (SNB-19 CNS) | GI50 (SF-295 CNS) | GI50 (M14 melanoma) | GI50 (CAKI-1 renal) | GI50 (NCI-H23 lung) | GI50 (SN12C renal)
CC1Cc2c(N)nc(N3CCOCC3)nc2NC1=O (centres undefined) | > 100 µM | > 100 µM | > 100 µM | > 100 µM | > 100 µM | > 100 µM | > 100 µM | > 100 µM | > 100 µM |  |  |  |  |  |  |  |  |  |  | 
O=C(N/C(=C\c1ccc([N+](=O)[O-])cc1)c1nc2ccc(Cl)cc2[nH]1)c1ccccc1 | 27.8 µM |  | 83.7 µM | 40.7 µM | 41.9 µM | > 100 µM | 63.8 µM | 31.3 µM | 44.6 µM | 59.6 µM |  |  |  |  |  |  |  |  |  | 
S=P(c1ccccc1)(c1ccccc1)C1(C2(P(=S)(c3ccccc3)c3ccccc3)CC2)CC1 | > 100 µM |  | > 100 µM | > 100 µM | > 100 µM | > 100 µM | > 100 µM | > 100 µM | > 100 µM |  |  |  |  |  |  |  |  |  |  | 
Cc1cccc2c1O/C(=C\c1ncc([N+](=O)[O-])n1C)C2=O | 0.523 µM | 5.2 µM | 0.688 µM | 3.87 µM |  | 4.6 µM | 2.62 µM | 0.5 µM | 0.742 µM | 0.479 µM | 0.188 µM | 0.542 µM | 0.24 µM | 1.15 µM | 0.615 µM | 0.516 µM | 0.169 µM | 0.135 µM | 0.213 µM | 
O=c1ccccc(-c2ccc(-c3ccco3)cc2)c1O | 45.8 µM | 18.8 µM | 17.8 µM | 6.38 µM | 16.6 µM | 22.9 µM | 13.6 µM | 6.11 µM | 15 µM |  | 4.07 µM | 1.6 µM | 0.79 µM | 0.703 µM | 1.04 µM | 0.555 µM | 0.665 µM |  | 1.22 µM | 1.24 µM
C[Si](C)(C)/C=C\CCCN1C(=O)CCC1=O | > 100 µM | > 100 µM | > 100 µM | > 100 µM | > 100 µM | > 100 µM | > 100 µM | > 100 µM | > 100 µM |  |  |  |  |  |  |  |  |  |  | 
CN(C)Cc1cccc(CN(C)C)[c]1[Sn]([Br])([c]1ccccc1)[c]1ccccc1 |  | 53.7 µM | 35.2 µM | 30.3 µM | 35.6 µM | 48.4 µM | 32.1 µM | 30.6 µM | 46.3 µM | 47.1 µM |  | 16 µM | 14.5 µM | 15.2 µM | 18.7 µM | 14.8 µM | 15.9 µM | 21.3 µM | 13.5 µM | 16.7 µM
CC(=O)O[C@H]1CCC2[C@@H]3CCC4Nc5c(cnn5-c5ccccc5)C[C@]4(C)C3CC[C@@]21C (some centres undefined) | 29.7 µM | 23.7 µM |  | 54.9 µM | 41.4 µM | 41.9 µM | 10.7 µM | 29.9 µM | 21.2 µM | 20.7 µM |  |  |  |  |  |  |  |  |  | 
Cc1ccc2c(N/N=C\c3ccco3)cc(C)nc2n1 | 9.84 µM | 8.72 µM | 5.35 µM | 3.74 µM | 16.5 µM | 24 µM | 14.3 µM | 4.04 µM |  | 12.8 µM | 2.92 µM | 2.79 µM | 2.11 µM | 2.01 µM | 8.15 µM | 3.31 µM | 2.05 µM | 2.93 µM |  | 4.68 µM
O=C(NC1CCN(Cc2ccccc2)CC1)c1cc(C(=O)NC2CCN(Cc3ccccc3)CC2)cc(C(=O)NC2CCN(Cc3ccccc3)CC2)c1 | 10.1 µM | 16.5 µM | 9.5 µM | 1.62 µM | > 50 µM | 17.6 µM | 15.6 µM |  | 15.7 µM | > 50 µM | 2.03 µM | 8.08 µM | 2.81 µM | 0.865 µM | 8.61 µM | 6.76 µM |  | > 50 µM | 7.78 µM | 15.6 µM
c1ccc2c(c1)nnn2CNc1ccc(N2CCOCC2)cc1 | > 100 µM | > 100 µM | > 100 µM | > 100 µM | > 100 µM | > 100 µM | > 100 µM | > 100 µM | > 100 µM |  |  |  |  |  |  |  |  |  |  | 
C/C(=N\NS(=O)(=O)c1ccc(C)cc1)c1c(O)cc(C)oc1=O |  | > 100 µM | > 100 µM | > 100 µM | > 100 µM | > 100 µM | > 100 µM | > 100 µM | > 100 µM | > 100 µM |  |  |  |  |  |  |  |  |  | 
C[C@@H](NC1CCC[C@@H]1O)c1ccccc1 (some centres undefined) |  | > 100 µM | > 100 µM |  | > 100 µM | > 100 µM | > 100 µM | > 100 µM |  | > 100 µM |  |  |  |  |  |  |  |  |  | 
COc1ccc(-c2csc(NC(=O)N3CCN(c4cc5c(cc4F)c(=O)c(C(=O)O)cn5C4CC4)CC3)n2)cc1 |  |  |  | > 100 µM | > 100 µM | > 100 µM | 8.79 µM | > 100 µM |  |  |  |  |  | 1.8 µM | 3.29 µM | 2.25 µM | 2.31 µM |  |  | 1.49 µM
CCN(CC)CCOC(=O)/C(=C/c1ccc(OC)cc1)c1cc(OC)c(OC)c(OC)c1 | 9.32 µM | 19.3 µM | > 100 µM | 10.8 µM | 57.5 µM | 80.6 µM | 6.3 µM | 19.9 µM |  | 38 µM |  |  |  |  |  |  |  |  |  | 
COc1cc2ccc(/C(C)=N/OC(C)=O)cc2cc1OC | > 100 µM | > 100 µM | > 100 µM | > 100 µM | > 100 µM | > 100 µM | > 100 µM | > 100 µM | > 100 µM |  |  |  |  |  |  |  |  |  |  | 
Cc1[nH]c2ccccc2c1C1CC(=O)NC1=O (centres undefined) |  | > 100 µM | > 100 µM | > 100 µM |  |  | > 100 µM | > 100 µM | > 100 µM | > 100 µM |  |  |  |  |  |  |  |  |  | 
COc1cc2c(=O)n(CCCn3ccnc3)c3c4cc5c(cc4ccc3c2cc1OC)OCO5 | 17.1 µM |  | > 100 µM | 1.8 µM | > 100 µM | 42.8 µM | 12.5 µM | > 100 µM | > 100 µM |  | 0.324 µM |  | 2 µM | 0.489 µM | 0.496 µM | 0.331 µM | 0.698 µM |  | 0.599 µM | 0.635 µM
CC([C@H]1CCC2C3CCC4CC5(CC[C@]4(C)C3CC[C@@]21C)c1ccccc1C(=O)N5C)N(C)C (some centres undefined) | > 100 µM |  | 35 µM | 71.8 µM | > 100 µM | > 100 µM | 48.5 µM | 38.7 µM | > 100 µM | > 100 µM |  |  |  |  |  |  |  |  |  | 
